From US20140084216A1 (Merck Patent GmbH, priority 2011, published 2014)

SMILES: C=CC(=O)OCCN(CCOC(=O)C=C)c1ccc(N=Nc2snc(C)c2C#N)c(NC(C)=O)c1 [Example 5, Acrylic acid 2-[{3-acetylamino-4-(4-cyano-3-methylisothiazol-5-ylazo)-phenyl}-{2-acryloyloxyethyl}-amino]-ethyl ester]
- melting point: 92 to 94 °C
